Measurements: PMC8583936, “Machine Learning Assisted Approach for Finding Novel High Activity Agonists of Human Ectopic Olfactory Receptors” (International Journal of Molecular Sciences, 2021)
Several values for one entry are separate records, joined by “and”; a condition that tells them apart may be missing. Equal values may be shown once.

Assays:
OR1A1 = biological target: T1, OR1A1 (Homo sapiens, UniProt Q9P1Q5); experiment: Dual-Glo luciferase reporter gene assay, OR1A1 in Hana3A cells; assay type: cell-based; set-up: The open reading frames of ORs were amplified using Phusion polymerase; Rho-tag (first 20 amino acids of human rhodopsin) (N); expressed in transfected cells; host or cells: Hana3A cells (derived from HEK293T), pCI vector; co-transfected with human RTP1S, M3 receptor, CRE-Luc and SV40-RL; conditions: for activation of OR1A1 in dose-responses: Figure 4A; for Bottom / normilazed value = (L-400/R-400) / Top / EC50 / LogEC50: OR1A1; for Bottom / Top: log(agonist) vs. response (three parameters), normalized (L-400/R-400); for normilazed value = (L-400/R-400) / LogEC50: log[molecule]; for normilazed value = (L-400/R-400): three replicates; for LogEC50: M
T1 sequence (Q9P1Q5 1-309): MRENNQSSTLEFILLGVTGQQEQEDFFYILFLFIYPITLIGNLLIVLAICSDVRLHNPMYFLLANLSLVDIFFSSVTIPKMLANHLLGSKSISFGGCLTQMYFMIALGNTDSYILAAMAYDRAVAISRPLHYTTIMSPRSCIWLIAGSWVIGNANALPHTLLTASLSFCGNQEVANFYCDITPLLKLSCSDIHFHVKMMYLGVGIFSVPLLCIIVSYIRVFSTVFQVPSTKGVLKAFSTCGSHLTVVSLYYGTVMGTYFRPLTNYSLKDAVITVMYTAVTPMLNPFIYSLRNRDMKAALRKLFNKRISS
Protocol: (§1) Hana3A cells were maintained in minimal essential medium containing 10% FBS (vol/vol) with penicillin-streptomycin and amphotericin B (1/200 each vol/vol) at 37 °C and 5% CO2. Hana3A cells are derived from HEK293T [57] and are optimized for OR studies as shown in several studies, compared to earlier OR expression in Sf9 insect cells in Gat et al., and in Xenopus oocytes, COS-7, PC12h and CHO-K1 cells in Katada et al..
(§2) The Dual-Glo luciferase assay system (Promega, Madison, WI, USA) was used to evaluate the functionality of wild-type OR1A1 and OR2W1 in an in vitro system. The open reading frames of ORs were amplified using Phusion polymerase (Thermo Fisher Scientific, Waltham, MA, USA). Amplified fragments were cloned into pCI expression vector (Promega, Madison, WI, USA) containing the sequence encoding the first 20 amino acids of human rhodopsin (Rho-tag) at N-terminal. Hana3A cells have been cultured and plated the day before transfection with 6 mL at 1/10 of a 100% confluence 100 mm plate into 96-well plates coated with poly D-lysine. After overnight incubation, the required genes were transfected using, for each plate, 5 ng SV40-RL, 10 ng CRE-Luc, 5 ng human RTP1S [72], 2.5 ng M3 receptor [73] and 5 ng of receptor (OR1A1, OR2W1 or empty vector Rho-pCI) plasmid. After around 18 h of transfection, cells were stimulated during 3.5 h by 25 µL of odorant diluted in CD293 + 1% glutamine + 30 µM CuCl2. Odorants were obtained from Sigma Aldrich (St. Louis, MO, USA) and diluted at 1 M concentration in DMSO as stock solutions. […] The luminescence of Firefly (Luc) and Renilla (Rluc) luciferase, were then sequentially monitored by injecting the corresponding substrate following the supplier’s protocol. The activity in each well was normalized as (Luc-400)/(Rluc-400). The response of the receptor was also normalized to its basal activity as (NLX/NL0)-1 where NL0 is the normalized luminescence value at 0 µM of odorant and NLX the value at X µM. […] Raw results were first analyzed with Excel (Microsoft Corporation, Albuquerque, NM, USA) and dose response curves, max efficacy and EC50 have been determined with GraphPrism 6 software (GraphPad Software, La Jolla, CA, USA). Areas under the curves (AUC) were calculated in Excel by summing all the OR responses at different concentrations for each odorant.

OR2W1 = biological target: T2, OR2W1 (Homo sapiens, UniProt Q9Y3N9); experiment: Dual-Glo luciferase reporter gene assay, OR2W1 in Hana3A cells; assay type: cell-based; set-up: The open reading frames of ORs were amplified using Phusion polymerase; Rho-tag (first 20 amino acids of human rhodopsin) (N); expressed in transfected cells; host or cells: Hana3A cells (derived from HEK293T), pCI vector; co-transfected with human RTP1S, M3 receptor, CRE-Luc and SV40-RL; conditions: for normilazed value = (L-400/R-400): log[molecule], three replicates, listed as 1,4 bis(4-vinylphenoxy)butane
T2 sequence (Q9Y3N9 1-320): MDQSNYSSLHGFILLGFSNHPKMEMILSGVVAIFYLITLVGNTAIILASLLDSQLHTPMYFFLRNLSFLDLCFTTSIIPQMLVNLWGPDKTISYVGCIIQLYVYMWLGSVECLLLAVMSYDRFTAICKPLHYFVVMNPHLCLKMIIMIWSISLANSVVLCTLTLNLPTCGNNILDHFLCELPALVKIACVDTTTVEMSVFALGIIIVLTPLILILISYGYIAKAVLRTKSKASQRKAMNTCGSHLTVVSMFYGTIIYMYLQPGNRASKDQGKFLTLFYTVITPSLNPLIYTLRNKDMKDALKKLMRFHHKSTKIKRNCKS
Protocol: as §1, §2

[1] = OR2W1, log(agonist) vs. response (three parameters), 95% CI (profile likelihood), normalized (L-400/R-400)
[2] = three-parameter fit, 95% CI (profile likelihood)

Structure (SMILES)	activation of OR1A1 in dose-responses (OR1A1)	Bottom (OR1A1; 95% CI (profile likelihood))	normilazed value = (L-400/R-400) (OR1A1; M = -3.5)	normilazed value = (L-400/R-400) (OR1A1; M = -3.75)	normilazed value = (L-400/R-400) (OR1A1; M = -4)	normilazed value = (L-400/R-400) (OR1A1; M = -4.25)	normilazed value = (L-400/R-400) (OR1A1; M = -4.5)	normilazed value = (L-400/R-400) (OR1A1; M = -4.75)	normilazed value = (L-400/R-400) (OR1A1; M = -5)	normilazed value = (L-400/R-400) (OR1A1; M = -5.25)	normilazed value = (L-400/R-400) (OR1A1; M = -5.5)	normilazed value = (L-400/R-400) (OR1A1; M = -5.75)	normilazed value = (L-400/R-400) (OR1A1; M = -6)	Top (OR1A1; 95% CI (profile likelihood))	EC50 (OR1A1; [2])	LogEC50 (OR1A1; [2])	EC50 (OR1A1; 95% CI)	also measured
c1cnc2c(c1)ccc1cccnc12 [1,10-Phenanthroline]	did not activate OR1A1	1.108 to 2.224	-5 and -0.03226 and 0.3636	0.5532 and 0.08791 and 0.1429	-3.909 and 0.2121 and 0.03846	1.0814 and 2.077 and 1.521	1.468 and 1.358 and 1.008	0.8876 and 1.015 and 1.576	1.356 and 1.5085 and 1.392	1.691 and 1.671 and 2.1214	1.201 and 1.5718 and 1.847	1.3268 and 1.745 and 1.5675	1.452 and 1.389 and 1.692	–	–	–	–	–
C=Cc1ccc(OCCCCOc2ccc(C=C)cc2)cc1 [1-Ethenyl-4-[4-(4-ethenylphenoxy)butoxy]benzene]	–	–	–	–	–	–	–	–	–	–	–	–	–	–	–	–	–	activation of OR2W1 in dose-responses (OR2W1; Figure 4B): non-agonist; Bottom (OR2W1; [1]): 13.33 to 18.34; Top (OR2W1; [1]): 19.48 to 21.36; normilazed value = (L-400/R-400) (OR2W1; OR2W1, M = -3.5): 14.9951 and 16.6432 and 18.6473; normilazed value = (L-400/R-400) (OR2W1; OR2W1, M = -3.75): 18.9044 and 23.5612 and 19.9145; normilazed value = (L-400/R-400) (OR2W1; OR2W1, M = -4): 20.1703 and 23.9778 and 22.651; normilazed value = (L-400/R-400) (OR2W1; OR2W1, M = -4.25): 19.282 and 20.5728 and 18.4952; normilazed value = (L-400/R-400) (OR2W1; OR2W1, M = -4.5): 18.9465 and 18.6061 and 21.68; normilazed value = (L-400/R-400) (OR2W1; OR2W1, M = -4.75): 18.1682 and 21.4587 and 25.3103; normilazed value = (L-400/R-400) (OR2W1; OR2W1, M = -5): 19.2619 and 21.2657 and 21.338; normilazed value = (L-400/R-400) (OR2W1; OR2W1, M = -5.25): 22.445 and 21 and 22.2921; normilazed value = (L-400/R-400) (OR2W1; OR2W1, M = -5.5): 19.9195 and 18.3482 and 19.8887; normilazed value = (L-400/R-400) (OR2W1; OR2W1, M = -5.75): 21.6432 and 19.6062 and 21.4331; normilazed value = (L-400/R-400) (OR2W1; OR2W1, M = -6): 16.9263 and 20.1438 and 17.6109
C=C(C)[C@H]1CC=C(C)CC1 [Dipentene]	weak activator	0.9206 to 2.078	15.0728 and 8.79 and 8.6943	10.4582 and 8.9424 and 9.316	8.181 and 7.514 and 8.062	7.841 and 5.647 and 6.278	5.494 and 4.914 and 4.401	3.7707 and 3.641 and 3.368	2.7632 and 2.301 and 2.9635	2.721 and 2.59 and 2.766	2.326 and 2.0399 and 1.767	1.87 and 1.732 and 1.479	1.6 and 1.531 and 1.2039	11.22 to 15.68	44.9 to 133 µM	-4.348 to -3.874	–	–
CCOC(=O)Cc1cccc(Br)c1 [Ethyl 2-(3-bromophenyl)acetate]	able to activate OR1A1	0.4401 to 2.007	9.12 and 11.0639 and 10.393	11.9065 and 11.6251 and 11.7476	13.3839 and 12.372 and 11.9409	8.912 and 11.2901 and 12.3912	7.943 and 8.382 and 10.0109	5.611 and 6.9779 and 6.123	5.045 and 5.149 and 4.806	3.622 and 3.689 and 4.46	2.564 and 3.159 and 3.452	2.1766 and 2.696 and 2.931	1.855 and 2.338 and 2.234	11.66 to 13.55	11.5 to 24.4 µM	-4.940 to -4.613	11.5 to 24.4 µM	–
COC(=O)Cc1ccccc1C [Methyl 2-(2-methylphenyl)acetate]	able to activate OR1A1	0.03511 to 1.535	10.0524 and 12.0337 and 11.3132	12.5278 and 11.5014 and 12.1842	10.2366 and 11.6676 and 13.2311	7.699 and 8.952 and 12.582	7.699 and 8.491 and 8.724	5.333 and 7.756 and 8.263	4.586 and 4.422 and 5.725	3.435 and 3.266 and 4.088	2.183 and 2.432 and 2.624	1.457 and 1.905 and 2.354	1.1663 and 1.179 and 1.777	11.79 to 13.66	12.2 to 25 µM	-4.914 to -4.603	12.2 to 25 µM	–
